The source of these data is paper PMC7759402 (Journal of Analytical Methods in Chemistry, 2020).

The test system of series [1] is pancreatic ductal adenocarcinoma xenograft. To be noted: combination therapy of VS-5584 with ERK inhibitor SCH772984; cited from earlier work.
The nature of series [2]: Stability of VS-5584 in rat plasma (QC samples, UPLC-MS/MS). The series is classed as in vitro ADME. To be noted: for Stability RE (%): n = 3. The method, then: Quality control (QC) samples were prepared at LLOQ, low, medium, and high concentrations (1.0, 2.0, 200, and 800 ng/mL) separately in the same manner. The IS working solution was prepared in acetonitrile at a concentration of 40 ng/mL.
Stability studies were conducted under a variety of different conditions. The accuracy and precision under the above conditions should be within ±15%.

Structures are written as SMILES.

On to `O=C(Nc1ccc2[nH]nc(-c3ccncc3)c2c1)[C@@H]1CCN(CC(=O)N2CCN(c3ccc(-c4ncccn4)cc3)CC2)C1` [SCH772984], for which the tumor suppression rate in series [1] is given as 80%.

On to `Cc1nc2c(-c3cnc(N)nc3)nc(N3CCOCC3)nc2n1C(C)C` [VS-5584], for which, in series [2] (4°C in an autosampler for 12 h), the “stability of processed samples (in words)” value is “remained intact”. Besides, the “Stability RE (%)” value in series [2] (processed samples, 4°C in autosampler for 12 h, spiked 2.0 ng/mL) is −8.7%; in series [2] (processed samples, 4°C in autosampler for 12 h, spiked 200 ng/mL) it was 10.4%; in series [2] (processed samples, 4°C in autosampler for 12 h, spiked 800 ng/mL), 9.9%; in series [2] (rat plasma, 12 h at room temperature, spiked 2.0 ng/mL), −7.0%; in series [2] (rat plasma, 12 h at room temperature, spiked 200 ng/mL), 10.7%; in series [2] (rat plasma, 12 h at room temperature, spiked 800 ng/mL), 9.2%. Also, the “Stability RE (%)” value in series [2] (rat plasma, 30 days at −25°C, spiked 2.0 ng/mL) is reported as 9.4%; in series [2] (rat plasma, 30 days at −25°C, spiked 200 ng/mL), −12.2%; in series [2] (rat plasma, 30 days at −25°C, spiked 800 ng/mL), −5.7%; in series [2] (rat plasma, three freeze–thaw cycles, spiked 2.0 ng/mL), −6.5%; in series [2] (rat plasma, three freeze–thaw cycles, spiked 200 ng/mL), −6.5%; in series [2] (rat plasma, three freeze–thaw cycles, spiked 800 ng/mL), 7.4%. In series [2] (−25°C for 30 days, room temperature for 12 h, three freeze-thaw cycles), the “stability in rat plasma (in words)” value was “stable”.
